The results in this text go back to patent US11180518B2, “Phenyl-heterocycle-phenyl derivatives for use in the treatment or prevention of melanoma” (MAX-PLANCK-GESELLSCHAFT ZUR FÖRDERUNG DER WISSENSCHAFTEN …, priority 2017, dated 2021).

One data set relates to SK-MEL-5 melanoma cells. The experiment in a line: Cell morphology (phase-contrast). The settings on record: increasing doses, serum-free medium; time- and dose-dependent. It is filed as cell-based, human. An excerpt:
(§1) To assess the possible impact of anle138b as well as anle138c on the different melanoma cell lines, WM983-A, WM983-B and SK-MEL-5, we treated them with increasing doses of either compound, dissolved in dimethyl sulfoxide (DMSO), and added to serum-free culture medium. […] We also observed that treatment with anle138b caused a more rapid morphological change than anle138c. To determine whether the effect of the two anle compounds was related to the amount of α-synuclein produced by the cells, we compared the proliferation of the (VGP) WM983-A high-level and the (RGP/VGP) WM1158 low-level α-synuclein-producing melanoma cells over a period of 96 hr, with replenishment of each anle compound at 48 hr (FIGS. 8A and B).
(§2) 10 or 30 mM stock solutions of anle138b or anle138c were made in DMSO. Since anle138b as well as anle138c bind strongly to FBS, melanoma cells, plated for 24 hr in tissue-culture medium containing 10% FBS, were rinsed three times with serum-free medium prior to addition of anle138b, anle138c, or an equivalent volume of DMSO only in serum-free medium. Forty-eight hours later, the cell culture medium was removed, followed by addition of an equivalent dose of anle138b or anle138c, or DMSO only in serum-free culture medium. […] Proliferation of melanoma cells that had received DMSO only, or were treated with anle138b was determined by counting the cells with a hemocytometer.
(§3) Cell morphology. Phase-contrast or DIC images of the melanoma cells that had been treated for various times with anle138b or anle138c, or had received DMSO only were captured with a 10×NA 0.6 objective on a Zeiss Axiovert 100 microscope with a Hamamatsu Orca charge-coupled device (CCD) camera. At least four images, at random areas per culture dish, were recorded for each time point.

The next data set has as its system WM1158 melanoma cells. The experiment in a line: Cell morphology (phase-contrast). The settings on record: 10 μM, up to 96 hr, replenishment at 48 hr. It is filed as cell-based, human.
Text: as §1, §2, §3

The subject of data set [1] is WM983-B melanoma cells. The experiment in a line: Cell morphology (phase-contrast). Format: cell-based, human. The settings on record: increasing doses, serum-free medium; time- and dose-dependent.
Text: as §1, §2, §3

Data set [2] has as its system WM983-B melanoma cells. The experiment in a line: Autophagy: LC3 immunofluorescence. It is filed as cell-based, human. As to the method: We observed a clear effect of the anle compounds on the autophagy pathway of the melanoma cells. […] Following addition of anle138c, the effect was seen later with levels of 8% at 24 hr and 78% after 96 hr.
Autophagy. WM983-B and SK-MEL-5 cells that for 24 or 48 hr were treated with anle138 or had received DMSO only were fixed for 20 min with 3.7% PFA, permeabilized, blocked, and probed with an anti-LC3B [clone 2G6] antibody (nanoTools Antikörpertechnik GmbH & Co. KG, Teningen, Germany), followed by a donkey anti-mouse Alexa-488 secondary antibody and Draq5 DNA counterstain. Confocal image stacks were obtained with a 63×NA 1.2 objective on a Zeiss LSM 510 Meta confocal microscope.

The nature of data set [3]: Pharmacokinetic (HPLC) analysis of resected xenograft tumors. Format: in vivo, nude mice. The settings on record: female, CAnN.Cg-Foxn1nu/Crl nude, mouse, tumor (WM983-B human melanoma xenograft, oral, 2 g of anle138b/kg of food pellets), food pellets with 2 g/kg for seven days, read-out: level in the tumor. An excerpt:
To determine whether the DPP compound, anle138b, when administered systemically to human MGP melanoma cells grown as subcutaneous tumors in nude mice, would reach the tumors, we performed the following study. A nude mouse, bearing high-level α-synuclein-expressing (MGP) WM983-B human melanoma xenografts on its lower right and on its lower left dorsal side, received, for seven days, food pellets mixed with anle138b. A second nude mouse, also bearing WM983-B tumors on its lower right as well as on its lower left dorsal side, received, for seven days, the same type of food pellets not containing anle138b. After the mice were sacrificed, we performed the following analyses on the post-mortem resected and thereafter, cryopreserved tumors. […]
Cryopreserved WM983-B human melanoma xenograft tissues were brought to 4° C. prior to their transfer into Precellys CKMix—2 mL tissue homogenizing tubes, and homogenization in 0.5 to 1.00 ml acetonitrile using a Precellys Evolution Super homogenizer (Bertin Instruments, Montigny-le-Bretonneux, France). […] The effluent was monitored for UV absorption at 260 nm. Samples were quantitated using peak area ratio of compounds to external standard.

The subject of data set [4] is WM983-B human melanoma xenografts. The experiment in a line: Melanoma xenograft study: H&E and LC3 staining of tumor sections. Format: in vivo, nude mice. The settings on record: food pellets with compound for seven days; vs control tumor. An excerpt:
To determine whether the DPP compound, anle138b, when administered systemically to human MGP melanoma cells grown as subcutaneous tumors in nude mice, would reach the tumors, we performed the following study. A nude mouse, bearing high-level α-synuclein-expressing (MGP) WM983-B human melanoma xenografts on its lower right and on its lower left dorsal side, received, for seven days, food pellets mixed with anle138b. A second nude mouse, also bearing WM983-B tumors on its lower right as well as on its lower left dorsal side, received, for seven days, the same type of food pellets not containing anle138b. After the mice were sacrificed, we performed the following analyses on the post-mortem resected and thereafter, cryopreserved tumors.
4-week-old, female nude mice (CAnN.Cg-Foxn1nu/Crl) (Charles River Laboratories, Research Models and Services, Germany GmbH, Sulzfeld, Germany) were injected subcutaneously on their lower right as well as lower left dorsal side with WM983-B (MGP) human melanoma cells (1×10^7 cells per side). When the tumors had reached a size of 2.3 to 3.0 mm in any direction, the normal food pellet diet of one of the animals was replaced with food pellets mixed with anle138b [2 g of anle138b/kg of food pellets] […]

Like-named read-outs stand apart in the source and are kept apart here.

With `Brc1cccc(-c2cc(-c3ccc4c(c3)OCO4)n[nH]2)c1` [anle138b, 5-(3-Bromophenyl)-3-(3,4-methylenedioxyphenyl)-1H-pyrazole], the morphological changes result with SK-MEL-5 melanoma cells and in the data set on WM983-B melanoma cells [1] was “major morphological changes” in each case. Besides, the morphology result in the data set on WM1158 melanoma cells is given as “did not show a significantly altered morphology”. Also, the “cells with punctuate upregulation of LC3” value in the data set on WM983-B melanoma cells [2] (24 hr, cells still attached) is reported as “about 60%”; with WM983-B melanoma cells [2] (48 hr, cells remaining on the dish) it was 95%. In addition, the values for the concentration at 7 days in data set [3] (tumor from left dorsal side (218 mg)) and in data set [3] (tumor from right dorsal side (57 mg)) were 110 µM and 125 µM, respectively. In addition, in data set [4], the “LC3-positive cells in tumor sections” value was “more LC3-positive cells”. In addition, the “morphology of tumor cells (H&E)” value in data set [4] is given as “arranged in a scattered pattern with focally pronounced disturbances in the tissue's architecture”.
